In ChEMBL document CHEMBL1201862, “PubChem BioAssay data set” (2004):
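Tested at 5 concentrations; 48 h exposure; 96-well plates; endpoints linearly interpolated, else capped at highest concentration. GI50 marks 50% less growth.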 Calls of active or inactive are those of the source. Rule as the data show it: active = GI50 up to about 1.1 µM and inactive = higher.

Experiments:
Assay in all cases: NCI tumour cell line growth inhibition, 48 h
BT-549 = test system: BT-549
CAKI-1 = test system: CAKI-1
CCRF-CEM = test system: CCRF-CEM
HT-29 = test system: HT-29
IGROV-1 = test system: IGROV-1
KM12 = test system: KM12
M14 = test system: M14
MDA-MB-231 = test system: MDA-MB-231
Malme-3M = test system: Malme-3M
NCI-H522 = test system: NCI-H522
OVCAR-3 = test system: OVCAR-3
OVCAR-4 = test system: OVCAR-4
RXF 393 = test system: RXF 393
SK-MEL-2 = test system: SK-MEL-2
SK-MEL-5 = test system: SK-MEL-5
SN12C = test system: SN12C
SNB-75 = test system: SNB-75
T47D = test system: T47D
TK-10 = test system: TK-10
UACC-62 = test system: UACC-62

Measured: GI50

COc1cc(/C=C2/C[C@H]3[C@@H]4CC=C5C[C@@H](OC(C)=O)CC[C@]5(C)[C@H]4CC[C@]3(C)NC2=O)cc(OC)c1OC
inactive: BT-549 22.5 µM | CAKI-1 29.5 µM | CCRF-CEM 49.4 µM | HT-29 38.7 µM | IGROV-1 30 µM | KM12 47.4 µM | M14 36.5 µM | MDA-MB-231 22 µM | Malme-3M 25.6 µM | NCI-H522 24.6 µM | OVCAR-3 31.3 µM | OVCAR-4 17.4 µM | RXF 393 17.3 µM | SK-MEL-2 18.7 µM | SK-MEL-5 22.9 µM | SN12C 29.6 µM | SNB-75 22.5 µM | T47D 22 µM | TK-10 26.5 µM | UACC-62 19.8 µM

COc1cc2[nH]c(=O)c3cc(-c4ccccc4)cc4c(Cl)nc(c1OC)c2c43
inactive: BT-549 43.2 µM | CAKI-1 24.4 µM | CCRF-CEM 4.88 µM | HT-29 3.92 µM | IGROV-1 19.1 µM | KM12 20 µM | M14 19.4 µM | MDA-MB-231 3.64 µM | Malme-3M 6.32 µM | NCI-H522 3.77 µM | OVCAR-3 3.79 µM | OVCAR-4 9.27 µM | RXF 393 23.3 µM | SK-MEL-2 15.1 µM | SK-MEL-5 12.5 µM | SN12C 11.7 µM | SNB-75 > 39.4 µM | T47D 24.4 µM | TK-10 29.6 µM | UACC-62 14.1 µM

FC(F)(F)c1ccc2nc(Sc3ccc4ccccc4c3)cnc2c1
inactive: BT-549 > 100 µM | CAKI-1 50.2 µM | CCRF-CEM 24.4 µM | HT-29 87.3 µM | IGROV-1 > 100 µM | KM12 > 100 µM | M14 87.9 µM | MDA-MB-231 62.7 µM | Malme-3M > 100 µM | NCI-H522 37.5 µM | OVCAR-4 51.5 µM | RXF 393 21.9 µM | SK-MEL-2 23.1 µM | SK-MEL-5 28.1 µM | SN12C 73.8 µM | SNB-75 > 100 µM | T47D 23.1 µM | TK-10 > 100 µM | UACC-62 64.9 µM

O=c1oc2ccc(Cl)cc2c2ccccc12
inactive: BT-549 13.4 µM | CAKI-1 43 µM | CCRF-CEM > 100 µM | HT-29 > 100 µM | IGROV-1 71.8 µM | M14 > 100 µM | MDA-MB-231 17.4 µM | Malme-3M > 100 µM | NCI-H522 48.5 µM | OVCAR-3 > 100 µM | OVCAR-4 > 100 µM | RXF 393 22.1 µM | SK-MEL-2 18.6 µM | SK-MEL-5 67.6 µM | SN12C > 100 µM | SNB-75 39.2 µM | T47D > 100 µM | TK-10 51.6 µM | UACC-62 71.6 µM

C[C@@]12C=CC3C/C(=N\C(N)=S)C=C(CCCC4OCCO4)[C@]3(CC1)C2 (some centres not stated)
inactive: BT-549 16.9 µM | CAKI-1 25.1 µM | HT-29 11.2 µM | IGROV-1 14.8 µM | KM12 23.6 µM | M14 17.2 µM | MDA-MB-231 20.3 µM | Malme-3M 18.4 µM | NCI-H522 6.87 µM | OVCAR-3 15.2 µM | OVCAR-4 18.4 µM | RXF 393 16 µM | SK-MEL-2 16.9 µM | SK-MEL-5 12.4 µM | SN12C 16.5 µM | SNB-75 28.6 µM | T47D 22.1 µM | TK-10 20.6 µM | UACC-62 16.2 µM

NS(=O)(=O)c1ccc(/N=N/c2ccc(O)cc2)cc1
inactive: BT-549 10.5 µM | CAKI-1 20.9 µM | CCRF-CEM 62.1 µM | HT-29 50.2 µM | IGROV-1 70 µM | KM12 18.6 µM | M14 33.2 µM | MDA-MB-231 64.3 µM | Malme-3M > 100 µM | NCI-H522 33.7 µM | OVCAR-3 66.4 µM | OVCAR-4 43.4 µM | RXF 393 > 100 µM | SK-MEL-2 32.7 µM | SK-MEL-5 28.8 µM | SN12C 64 µM | SNB-75 19.1 µM | T47D 31.3 µM | TK-10 > 100 µM

Clc1ncnc2c1nc(C#Cc1ccccc1)n2Cc1ccccc1
inactive: BT-549 20.8 µM | CAKI-1 18.2 µM | CCRF-CEM 3.78 µM | HT-29 24.3 µM | KM12 23.6 µM | M14 19.1 µM | MDA-MB-231 26.7 µM | Malme-3M > 100 µM | NCI-H522 16.4 µM | OVCAR-3 3.99 µM | OVCAR-4 16.7 µM | RXF 393 16.3 µM | SK-MEL-2 30 µM | SK-MEL-5 32 µM | SN12C 18.8 µM | SNB-75 25.8 µM | T47D 39.8 µM | TK-10 > 100 µM | UACC-62 30.5 µM

COC(=O)[C@]12CCC(C)(C)C[C@H]1C1=CC[C@@H]3[C@@]4(C)CC[C@H](OC5OC(CO)C(O)C(O)C5OC5OC(CO)C(O)C(O)C5O)C(C)(C)[C@@H]4CC[C@@]3(C)[C@]1(C)CC2 (some centres not stated)
inactive: BT-549 17.4 µM | CAKI-1 8.81 µM | CCRF-CEM 15.7 µM | HT-29 10.4 µM | IGROV-1 14.4 µM | KM12 12.6 µM | M14 3.91 µM | MDA-MB-231 2.65 µM | Malme-3M 11.9 µM | NCI-H522 3.1 µM | OVCAR-3 10.6 µM | OVCAR-4 4.43 µM | RXF 393 5.75 µM | SK-MEL-2 10.7 µM | SK-MEL-5 15.8 µM | SN12C 4.62 µM | SNB-75 13.5 µM | T47D 18.3 µM | UACC-62 10.5 µM

CCOC(=O)/C(C(=O)Nc1ccc(F)cc1)=C(/N)N1CCOCC1
inactive: BT-549 > 100 µM | CAKI-1 > 100 µM | CCRF-CEM > 100 µM | HT-29 > 100 µM | IGROV-1 > 100 µM | KM12 > 100 µM | M14 > 100 µM | MDA-MB-231 > 100 µM | Malme-3M > 100 µM | NCI-H522 > 100 µM | OVCAR-3 > 100 µM | OVCAR-4 > 100 µM | RXF 393 > 100 µM | SK-MEL-2 > 100 µM | SN12C > 100 µM | SNB-75 > 100 µM | T47D > 100 µM | TK-10 > 100 µM | UACC-62 > 100 µM

NCCCN1CCN(c2ccccc2)CC1
inactive: BT-549 > 100 µM | CAKI-1 > 100 µM | HT-29 95.1 µM | IGROV-1 > 100 µM | KM12 > 100 µM | M14 35.3 µM | MDA-MB-231 > 100 µM | Malme-3M > 100 µM | NCI-H522 73.6 µM | OVCAR-3 10.7 µM | OVCAR-4 > 100 µM | RXF 393 > 100 µM | SK-MEL-2 > 100 µM | SK-MEL-5 > 100 µM | SN12C > 100 µM | SNB-75 > 100 µM | T47D > 100 µM | TK-10 > 100 µM | UACC-62 70 µM
